Structures are written as SMILES.

By melting point is commonly meant the temperature of the solid-liquid transition. In turn, `Cc1nc(-c2ccccc2)sc1CNC(=O)c1ccnc(N2CCN(Cc3ccc(F)cc3)C2=O)c1` yielded a melting point of 182 to 184 °C. Compound `COC(=O)C1=C(O)CCc2ccc(OC)cc21` had a melting point of 48 to 48.5 °C. For `O=C(CCC1CCCCC1)NC1N=C(c2ccccc2)c2ccccc2NC1=S` (stereo unspecified), the melting point lay within 113 to 119 °C. `COc1ccc(N2N=C3c4cc(C)sc4CCCC3CC2=O)cc1` (stereo unspecified): the melting point was in the range of 136 to 138 °C.

For the compound `CN(C)c1c(-c2ccc(-c3ccccc3)cc2)nc2ccc(F)cc2c1C(=O)O`, the melting point was 235 to 239 °C.

Compound `CCOC(=O)c1c(NC(=O)C(F)(F)F)c2cccnc2n(CC)c1=O` registered a melting point of 195 to 197 °C. `CNC(=S)n1nc(C=Cc2ccc(Cl)cc2)nc1N` registered a melting point of 209 to 210 °C. With `CC(C)Cc1ccc2nc(Cl)cn2n1` the figure was 71 to 72.5 °C; with `Cc1cccc(Nc2cc(Nc3cccc(OCC4CO4)c3)ncn2)c1` (stereo unspecified), 143 to 145 °C; with `N#Cc1ccc(S(=O)(=O)Nc2cccc3c(C#N)c[nH]c23)cc1`, 250 to 252 °C. With `CCCC(CCC)N1Cc2c(C(=O)OC)cc(NS(C)(=O)=O)cc2C1=O` the figure was 173 °C; with `CNc1c(N)n(CC(C)(C)C)c(=O)[nH]c1=O`, 217 to 220 °C.

In the case of `Cc1nc2cnccc2o1`, the melting point was 56 to 58 °C. Turning to `CCCCNc1cc(C(=O)O)cc(S(N)(=O)=O)c1Nc1ccc(N)cc1`, the melting point was 210 °C.

As for `O=C1CCC(c2ccccc2)(c2ccccc2)[C@@H]2CN(C(=O)Cc3ccccc3O)C[C@H]12` (racemic), the melting point worked out at 232 °C. The result for `CCc1ccc2c(c1)cc(C(=O)Nc1nc(-c3c(OC)cc(C)cc3OC)n(CCC3CCCCC3)n1)n2CC(=O)O` reads 198 °C; that for `CCOC(=O)c1cn(-c2ccc(C(F)(F)F)cn2)nc1C(C)CC` (stereo unspecified), 63 to 64 °C; that for `O=C(Nc1ccc(F)cc1)NC1CCN(C(=O)c2cccnc2)CC1`, 118 to 122 °C.

In the case of `O=C(O)Cc1cn(Cc2ccc(OCc3csc(-c4ccccc4)n3)nc2)nc1-c1ccccc1`, the melting point is 118 to 119 °C.

Compound `c1ccc(C(CCN2CC3=C(C2)c2cccc4cccc3c24)(c2ccccc2)c2ccccc2)cc1` came in with a melting point of 159 to 168 °C.

`CCN(C(=O)N1CCN(c2cc(OC)cc(OC)c2)CC1)c1nc2ccccc2nc1OC` registered a melting point of 129 to 130 °C. The compound `CC(C)(CNC(=O)c1cc2cccc(NS(=O)(=O)c3cccs3)c2[nH]1)SCc1ccccc1` came in with a melting point of 170 to 171 °C. The result for `O=C(O)c1ccc(CN2C(=O)c3ccc(C(=O)O)cc3C2=O)cc1` reads 365 to 366 °C.

In turn, `Cc1cc(=O)[nH]nc1-c1ccc2c(c1)CCC1(CCN(C3CCC3)CC1)O2` gave a melting point of 270 to 272 °C. The result for `Cc1c(-c2ncncc2Br)ssc1=S` reads 122 °C; that for `ON=C1CCc2cc(Cl)ccc21`, 181 to 182 °C; that for `N#Cc1ccccc1Sc1nsc2ccccc12`, 116 to 117 °C. The result for `CC(CO)c1ccc(-c2ccccc2)c(F)c1` (stereo unspecified) reads 61 to 63 °C; that for `CCCOc1nc(=O)n(C(=O)NC)s1`, 112 °C. The compound `O=C(CCCCCl)Nc1nnc(SCc2ccccc2)s1` gave a melting point of 145 to 148 °C. In turn, `CCOC(=O)COc1ccc(C(=O)CCC(=O)O)cc1Cl` returned a melting point of 137 to 139 °C. Take `CNC(=O)C(=O)CCCCCCS(=O)(=O)c1ccc2ccccc2c1`: the melting point lay in the range of 108 to 109 °C.

Regarding `O=C(O)Cc1cc(C(=O)Cc2c(F)cccc2Cl)ccc1O`, the melting point was determined as 240 °C.

As for `Oc1ccc(C2=C(c3ccc(OCCCCCI)cc3)c3ccc(O)cc3CCC2)cc1`, the melting point lay in the range of 202 to 204 °C. `CN=C1C2=C(C=CC1CN(C)c1ccc(C(=O)OC)cc1)C(C)(C)CCC2(C)C` (stereo unspecified) displayed a melting point of 275 to 280 °C. In turn, `O=C(NCC(F)(F)F)c1cccc(-c2nc(=O)c3ccccc3s2)n1` had a melting point of 243 to 244 °C.

The values are drawn from a melting point compilation (Tetko et al.; mined from patent text by program, amines drawn as free bases though some values may be those of a salt).
